Test results taken from US20260226067A1, “MODULATORS OF TRPML, THEIR COMPOSITIONS AND METHODS OF USE” (Caraway Therapuetics, Inc., priority 2023, published 2026).

Key:
Human TRPML2 = target: T1, Human TRPML2 (Homo sapiens, UniProt Q8IZK6); experiment: Fluorescent TRPML2 assay (as for TRPML1); format: cell-based; conditions: as TRPML1 assay with TRPML2 subtype; read-out: Human TRPML 2 EC50
T1 construct: expressed in transfected cells
T1 sequence (Q8IZK6 1-566): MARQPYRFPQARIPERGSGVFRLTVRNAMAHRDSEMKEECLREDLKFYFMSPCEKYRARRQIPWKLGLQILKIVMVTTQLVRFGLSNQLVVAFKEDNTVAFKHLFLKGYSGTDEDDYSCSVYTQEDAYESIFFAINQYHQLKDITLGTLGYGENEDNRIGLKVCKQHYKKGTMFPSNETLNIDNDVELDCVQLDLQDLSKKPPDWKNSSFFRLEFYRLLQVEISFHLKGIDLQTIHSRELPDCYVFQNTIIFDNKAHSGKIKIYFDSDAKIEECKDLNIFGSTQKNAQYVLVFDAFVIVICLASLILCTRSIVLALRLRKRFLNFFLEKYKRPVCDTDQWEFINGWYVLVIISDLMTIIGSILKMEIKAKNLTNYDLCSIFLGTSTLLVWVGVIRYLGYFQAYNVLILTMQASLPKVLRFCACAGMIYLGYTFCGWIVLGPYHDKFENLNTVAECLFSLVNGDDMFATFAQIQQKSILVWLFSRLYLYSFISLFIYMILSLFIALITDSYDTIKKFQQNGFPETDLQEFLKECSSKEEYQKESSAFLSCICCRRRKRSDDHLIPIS
Description: (§1) HEK-293 Trex cells were stably transfected with a construct consisting of the human coding sequence for TRPML1 cloned into the tet-inducible plasmid pCDNA5 T/O. Mutations were introduced into the TRPML1 sequence to facilitate expression on the cell surface (Silvia Vergarajauregui, Rosa Puertollano Traffic. 2006 March; 7(3): 337-353). Briefly, the cells are cultured in 150 mm round tissue culture dishes containing 20 mL of media. The day before the assay the cells are rinsed with DPBS-Ca-Mg and then treated briefly with Trypsin-EDTA. The Trypsin-EDTA is diluted with growth media, and cells are counted. 38×10^6 cells are re-plated into 150 mm round tissue culture dishes in media containing 0.5 ug/mL doxycycline to induce expression of hTRPML1.
(§2) The day of the experiment cells are lifted from the plates as above and collected by centrifugation. The cells are then suspended in dye loading buffer consisting of Ringer's solution supplemented with 0.1% Pluronic Acid and 1 micromolar Fluo4-AM dye. Cells are loaded for ~60 minutes in the dark with occasional mixing. The cells are collected by centrifugation, the loading media aspirated, and the cells resuspended in 25 mL Ringer's solution and incubated ~60 minutes in the dark. The cells are again collected by centrifugation, rinsed in Ringer's Solution and resuspended to 0.2×10^6 cells/mL in modified Ringer's solution containing 10 mM calcium.
(§3) Compounds are dissolved to a concentration of 10 millimolar with DMSO. Compound plates are created by dispensing compounds into 384 well black wall clear bottom plates (Greiner 781091). Positive and negative controls are included on each plate. Typically, different amounts of each compound are tested ranging from 100 nanoMoles (20 micromolar final concentration) decreasing in half-log steps to 31 picoMoles (6 nanomolar final concentration). Each concentration is typically tested in triplicate.
(§4) 50 microliters of dye-loaded cells are dispensed into each well of the compound assay plate created above. The fluorescence in each well is then determined with an excitation wavelength of 480 nm and an emission wavelength of 540 nm using either a Molecular Devices SpectraMax multimode plate reader or a Hamamatsu FDSS/uCell plate imager.
(§5) The resulting fluorescence for each well is exported as an ascii file and loaded into our LIMS for analysis. The percent activity of each compound at each concentration is determined by comparison to the positive and negative control wells included in each plate.
(§6) Assays for TRPML2 and TRPML3 were performed as above for TRPML1, by substituting the appropriate TRPML2 or TRPML3 subtype for the TRPML1.
(§7) EC50 values were calculated using a non-linear regression of Prism. In the table, “A” indicates an EC50 of less than 100 nM, “B” indicates an EC50 range from 100 nM to 500 nM; “C” indicates an EC50 range from 500 nM to 2 μM; and “D” indicates an EC50 greater than 2 μM.

Human TRPML3 = target: T2, Human TRPML3 (Homo sapiens, UniProt Q8TDD5); experiment: Fluorescent TRPML3 assay (as for TRPML1); format: cell-based; conditions: as TRPML1 assay with TRPML3 subtype; read-out: Human TRPML 3 EC50
T2 construct: expressed in transfected cells
T2 sequence (Q8TDD5 1-553): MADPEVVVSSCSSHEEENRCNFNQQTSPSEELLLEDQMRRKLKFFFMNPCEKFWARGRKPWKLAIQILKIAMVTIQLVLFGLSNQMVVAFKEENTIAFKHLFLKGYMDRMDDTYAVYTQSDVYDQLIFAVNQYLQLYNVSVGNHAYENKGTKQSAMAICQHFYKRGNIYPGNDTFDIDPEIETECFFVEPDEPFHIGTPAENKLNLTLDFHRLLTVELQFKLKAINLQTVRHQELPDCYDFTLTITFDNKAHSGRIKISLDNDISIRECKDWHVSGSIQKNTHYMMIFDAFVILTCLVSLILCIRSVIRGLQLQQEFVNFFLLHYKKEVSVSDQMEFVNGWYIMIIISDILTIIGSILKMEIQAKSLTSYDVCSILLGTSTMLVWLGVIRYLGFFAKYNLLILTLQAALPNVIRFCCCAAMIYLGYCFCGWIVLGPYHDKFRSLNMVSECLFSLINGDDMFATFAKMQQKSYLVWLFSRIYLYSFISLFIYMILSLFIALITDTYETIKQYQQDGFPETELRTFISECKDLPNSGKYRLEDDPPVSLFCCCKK
Description: as §1, §2, §3, §4, §5, §6, §7

human TRPML1 = human TRPML1 (Homo sapiens, UniProt Q9GZU1); experiment: Fluorescent TRPML1 assay (Fluo4-AM calcium fluorescence); format: cell-based; conditions: HEK-293 Trex cells expressing hTRPML1, Fluo4-AM fluorescence; read-out: Human TRPML 1 EC50
human TRPML1, sequence (Q9GZU1 whole entry L15A/L16A/L577A/L578A, form open): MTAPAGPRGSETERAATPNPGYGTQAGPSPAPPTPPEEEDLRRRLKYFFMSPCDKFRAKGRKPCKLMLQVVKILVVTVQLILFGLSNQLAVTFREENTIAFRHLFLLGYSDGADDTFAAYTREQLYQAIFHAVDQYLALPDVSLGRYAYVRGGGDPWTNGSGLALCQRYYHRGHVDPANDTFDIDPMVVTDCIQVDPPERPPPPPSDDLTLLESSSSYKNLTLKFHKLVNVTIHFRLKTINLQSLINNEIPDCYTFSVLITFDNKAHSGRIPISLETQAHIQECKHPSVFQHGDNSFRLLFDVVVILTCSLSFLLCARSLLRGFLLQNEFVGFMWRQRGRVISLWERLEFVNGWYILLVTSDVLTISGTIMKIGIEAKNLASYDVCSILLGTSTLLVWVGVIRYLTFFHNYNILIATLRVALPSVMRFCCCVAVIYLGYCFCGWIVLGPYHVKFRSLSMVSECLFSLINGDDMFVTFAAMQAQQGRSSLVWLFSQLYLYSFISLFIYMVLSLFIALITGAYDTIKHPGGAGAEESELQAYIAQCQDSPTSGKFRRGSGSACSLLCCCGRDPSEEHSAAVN
Description: as §1, §2, §3, §4, §5, §7

TRPMLs = conditions: background statement; cited from earlier work

SMILES	EC50 (Human TRPML2)	EC50 (Human TRPML3)	EC50 (human TRPML1)	concentration needed to effectively activate TRPMLs (TRPMLs)
C[C@@H]1CN(c2ncnc3c2c(-c2ccccc2F)cn3-c2cc(C#N)ccn2)[C@@H](C)CN1C(=O)c1ccccc1N(C)C [Compound 121, 2-(4-((2S,5R)-4-(2-(dimethylamino)benzoyl)-2,5-dimethylpiperazin-1-yl)-5-(2-fluorophenyl)-7H-pyrrolo[2,3-d]pyrimidin-7-yl)isonicotinonitrile]	0.1 to 0.5 µM	< 0.1 µM	< 0.1 µM	
CC1CC(C)(C)N(C(=O)CN2C(=O)c3ccccc3C2=O)c2ccccc21 (stereo not shown) [ML-SA1]				~ 10 μM

Second part, led by results:

EC50 (Human TRPML2)	EC50 (Human TRPML3)	EC50 (human TRPML1)	SMILES	concentration needed to effectively activate TRPMLs (TRPMLs)
0.5 to 2 µM	0.1 to 0.5 µM	< 0.1 µM	C[C@@H]1CN(c2ncnc3c2c(-c2ccccc2)cn3-c2cc(C#N)ccn2)[C@@H](C)CN1C(=O)c1ccccc1 [Compound 116, 2-(4-((2S,5R)-4-benzoyl-2,5-dimethylpiperazin-1-yl)-5-phenyl-7H-pyrrolo[2,3-d]pyrimidin-7-yl)isonicotinonitrile]	
0.1 to 0.5 µM	< 0.1 µM	< 0.1 µM	COc1ccccc1C(=O)N1C[C@H](C)N(c2ncnc3c2c(-c2ccccc2F)cn3-c2cc(C#N)ccn2)C[C@H]1C [Compound 119, 2-(5-(2-fluorophenyl)-4-((2S,5R)-4-(2-methoxybenzoyl)-2,5-dimethylpiperazin-1-yl)-7H-pyrrolo[2,3-d]pyrimidin-7-yl)isonicotinonitrile]	
0.1 to 0.5 µM	< 0.1 µM	< 0.1 µM	CC(C)c1ccccc1C(=O)N1C[C@H](C)N(c2ncnc3c2c(-c2ccccc2F)cn3-c2cc(C#N)ccn2)C[C@H]1C [Compound 120, 2-(5-(2-fluorophenyl)-4-((2S,5R)-4-(2-isopropylbenzoyl)-2,5-dimethylpiperazin-1-yl)-7H-pyrrolo[2,3-d]pyrimidin-7-yl)isonicotinonitrile]	
0.5 to 2 µM	0.1 to 0.5 µM	< 0.1 µM	C[C@H]1CN(C(=O)c2ccccc2)CCN1c1ncnc2c1c(-c1ccccc1F)cn2-c1cc(C#N)ccn1 [Compound 122, (S)-2-(4-(4-benzoyl-2-methylpiperazin-1-yl)-5-(2-fluorophenyl)-7H-pyrrolo[2,3-d]pyrimidin-7-yl)isonicotinonitrile]	
